Legend:
[1] = compound: COc1ccc2c(c1)[C@]1(C[C@H]1c1ccc3c(/C=C/c4ccc(CN5C[C@@H](C)O[C@@H](C)C5)cc4)n[nH]c3c1)C(=O)N2
THZ531 = compound: CN(C)C/C=C/C(=O)Nc1ccc(C(=O)N2CCC[C@@H](Nc3ncc(Cl)c(-c4c[nH]c5ccccc45)n3)C2)cc1 [THZ531]
THZ1 = compound: CN(C)C/C=C/C(=O)Nc1ccc(C(=O)Nc2cccc(Nc3ncc(Cl)c(-c4c[nH]c5ccccc45)n3)c2)cc1 [THZ1]
Torin2 = compound: C1=CC(=CC(=C1)N2C(=O)C=CC3=CN=C4C=CC(=CC4=C32)C5=CN=C(C=C5)N)C(F)(F)F [Torin2]
[2] = compound: CC(=O)c1c(C)c2cnc(Nc3ccc(N4CCNCC4)cn3)nc2n(C2CCCC2)c1=O
TGX221 = compound: CC1=CN2C(=O)C=C(N=C2C(=C1)C(C)NC3=CC=CC=C3)N4CCOCC4 [TGX221]
Taselisib/GDC0032 = compound: Cc1nc(-c2cn3c(n2)-c2ccc(-c4cnn(C(C)(C)C(N)=O)c4)cc2OCC3)n(C(C)C)n1 [Taselisib/GDC0032]
Buparlisib/NVP-BKM120 = compound: Nc1cc(C(F)(F)F)c(-c2cc(N3CCOCC3)nc(N3CCOCC3)n2)cn1 [Buparlisib/NVP-BKM120]
AZD2014 = compound: CNC(=O)c1cccc(-c2ccc3c(N4CCOC[C@@H]4C)nc(N4CCOC[C@@H]4C)nc3n2)c1 [AZD2014]
AZD7762 = compound: NC(=O)Nc1cc(-c2cccc(F)c2)sc1C(=O)N[C@H]1CCCNC1 [AZD7762]
Saracatinib/AZD0530 = compound: CN1CCN(CCOc2cc(OC3CCOCC3)c3c(Nc4c(Cl)ccc5c4OCO5)ncnc3c2)CC1 [Saracatinib/AZD0530]
Olaparib/AZD2281 = compound: O=C(c1cc(Cc2n[nH]c(=O)c3ccccc23)ccc1F)N1CCN(C(=O)C2CC2)CC1 [Olaparib/AZD2281]
Cediranib/AZD2171 = compound: COc1cc2c(Oc3ccc4[nH]c(C)cc4c3F)ncnc2cc1OCCCN1CCCC1 [Cediranib/AZD2171]
Vorinostat = compound: O=C(CCCCCCC(=O)Nc1ccccc1)NO [Vorinostat]
ABT-737 = compound: CN(C)CC[C@H](CSc1ccccc1)Nc1ccc(S(=O)(=O)NC(=O)c2ccc(N3CCN(Cc4ccccc4-c4ccc(Cl)cc4)CC3)cc2)cc1[N+](=O)[O-] [ABT-737]
BSJ-01-175 = compound: CN(C)C/C=C/C(=O)Nc1ccc(O[C@@H]2CCC[C@@H](Nc3ncc(Cl)c(-c4c[nH]c5ccccc45)n3)C2)cc1 [BSJ-01-175]
AZD1775 = compound: C=CCn1c(=O)c2cnc(Nc3ccc(N4CCN(C)CC4)cc3)nc2n1-c1cccc(C(C)(C)O)n1 [AZD1775]
Rucaparib = compound: CNCc1ccc(-c2[nH]c3cc(F)cc4c3c2CCNC4=O)cc1 [Rucaparib]
Alpelisib/BYL719 = compound: Cc1nc(NC(=O)N2CCC[C@H]2C(N)=O)sc1-c1ccnc(C(C)(C)C(F)(F)F)c1 [Alpelisib/BYL719]
[3] = compound: CC(=O)Nc1cccc(-n2c(=O)n(C3CC3)c(=O)c3c(Nc4ccc(I)cc4F)n(C)c(=O)c(C)c32)c1
Ipatasertib/GDC0068 = compound: CC(C)NC[C@@H](C(=O)N1CCN(c2ncnc3c2[C@H](C)C[C@H]3O)CC1)c1ccc(Cl)cc1 [Ipatasertib/GDC0068]
INK128/MLN0128 = compound: CC(C)n1nc(-c2ccc3oc(N)nc3c2)c2c(N)ncnc21 [INK128/MLN0128]
SHP099 = compound: CC1(CCN(CC1)C2=CN=C(C(=N2)N)C3=C(C(=CC=C3)Cl)Cl)N [SHP099]
AZD6738 = compound: C[C@@H]1COCCN1c1cc(C2([S@](C)(=N)=O)CC2)nc(-c2cc[nH]c3nccc2-3)n1 [AZD6738]
Dasatinib = compound: Cc1nc(Nc2ncc(C(=O)Nc3c(C)cccc3Cl)s2)cc(N2CCN(CCO)CC2)n1 [Dasatinib]
[4] = compound: CCCCOc1c(C(=O)c2c(F)cc(C)cc2F)c[nH]c2nncc1-2
Tivantinib/ARQ197 = compound: O=C1NC(=O)[C@@H](c2cn3c4c(cccc24)CCC3)[C@@H]1c1c[nH]c2ccccc12 [Tivantinib/ARQ197]
THZ-P1-2 = compound: CN(C)C/C=C/C(=O)NC1=CC=C(C=C1)C(=O)NC2=CC=CC(=C2)NC3=NC=NC(=C3)C4=CNC5=CC=CC=C54 [THZ-P1-2]
Cabozantinib = compound: COc1cc2nccc(Oc3ccc(NC(=O)C4(C(=O)Nc5ccc(F)cc5)CC4)cc3)c2cc1OC [Cabozantinib]
Luminespib/NVP-AUY922 = compound: CCNC(=O)c1noc(-c2cc(C(C)C)c(O)cc2O)c1-c1ccc(CN2CCOCC2)cc1 [Luminespib/NVP-AUY922]
[5] = compound: CCN1CCN(Cc2ccc(Nc3ncc(F)c(-c4cc(F)c5nc(C)n(C(C)C)c5c4)n3)nc2)CC1
Volasertib/BI6727 = compound: CC[C@@H]1C(=O)N(C)c2cnc(Nc3ccc(C(=O)N[C@H]4CC[C@H](N5CCN(CC6CC6)CC5)CC4)cc3OC)nc2N1C(C)C [Volasertib/BI6727]
[6] = compound: CNc1nc(-c2ccc3c(N)n[nH]c3c2)cc(N2C[C@@H](C(=O)NC3CCCCC3)CC[C@H]2C)n1
senexin b = compound: CN1CCN(C(=O)c2ccc3cc(CCNc4ncnc5ccc(C#N)cc45)ccc3c2)CC1 [senexin b]
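Further: breast cancer and non-malignant breast epithelial cell lines, Deep Dye Drop or Dye Drop imaging, nine half-log doses, GR normalized to time-zero plates and DMSO-only controls.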

Cell Line	GR50, 72 h [1] [µM]	GR50, 72 h (THZ531) [µM]	GR50, 72 h (THZ1) [µM]	GR50, 72 h (Torin2) [µM]	GR50, 72 h [2] [µM]	GR50, 72 h (TGX221) [µM]	GR50, 72 h (Taselisib/GDC0032) [µM]	GR50, 72 h (Buparlisib/NVP-BKM120) [µM]	GR50, 72 h (AZD2014) [µM]	GR50, 72 h (AZD7762) [µM]	GR50, 72 h (Saracatinib/AZD0530) [µM]	GR50, 72 h (Olaparib/AZD2281) [µM]	GR50, 72 h (Cediranib/AZD2171) [µM]	GR50, 72 h (Vorinostat) [µM]	GR50, 72 h (ABT-737) [µM]	GR50, 72 h (BSJ-01-175) [µM]	GR50, 72 h (AZD1775) [µM]	GR50, 72 h (Rucaparib) [µM]	GR50, 72 h (Alpelisib/BYL719) [µM]	GR50, 72 h [3] [µM]	GR50, 72 h (Ipatasertib/GDC0068) [µM]	GR50, 72 h (INK128/MLN0128) [µM]	GR50, 72 h (SHP099) [µM]	GR50, 72 h (AZD6738) [µM]	GR50, 72 h (Dasatinib) [µM]	GR50, 72 h [4] [µM]	GR50, 72 h (Tivantinib/ARQ197) [µM]	GR50, 72 h (THZ-P1-2) [µM]	GR50, 72 h (Cabozantinib) [µM]	GR50, 72 h (Luminespib/NVP-AUY922) [µM]	GR50, 72 h [5] [µM]	GR50, 72 h (Volasertib/BI6727) [µM]	GR50, 72 h [6] [µM]	GR50, 72 h (senexin b) [µM]
CAL51	0.00556	> 1	0.385	0.0179	0.373	> 10	0.134	0.989	0.163	0.0446	1.85	7.19	3.05	1.83	> 10	0.432	0.274	> 10	6.1	> 1	2.98	0.015	> 10	5.34	0.0581	3.95	0.588	> 10	7.77	0.00639	0.113	0.00591	> 10	> 10
T47D	0.00463	0.114	0.0293	0.00602	0.0275	> 10	0.00179	0.248	< 0.001	2.37	3.95	> 10	4.1	1.83	> 10	0.189	5.09	> 10	0.153	> 1	0.136	0.00526	> 10	> 10	> 10	0.0149	0.346	2.22	7.88	0.00607	0.00428	0.0315	0.48	1.28
CAL120	0.00365	0.15	0.0579	0.0105	> 3.16	> 10	2.53	0.702	0.184	0.156	> 10	5.12	1.04	1.35	2.15	0.0411	0.197	> 10	> 10	0.0468	> 10	0.0115	> 10	> 10	0.0496	2.2	0.251	6.25	7.34	0.00281	0.247	0.00185	> 10	> 10
HCC38	0.00325	0.177	0.0239	0.0105	0.0597	> 10	2.7	1.27	0.452	0.00948	> 10	8.42	1.59	0.96	0.998	0.13	0.00378	> 10	> 10	0.22	> 10	0.0191	> 10	2	5.69	0.00391	0.309	4.23	7.6	0.00714	0.0446	0.00822	> 10	> 10
SUM159	0.00426	> 1	0.361	0.0417	1.73	> 10	0.182	2.21	0.176	0.834	> 10	> 10	> 10	3.28	> 10	0.0681	2.05	> 10	> 10	0.0316	> 10	0.0561	> 10	9.98	> 10	0.159	0.408	6.79	7.15	0.00945	0.565	0.0247	> 10	> 10
MDAMB468	0.00342	0.0412	0.0236	0.016	> 3.16	> 10	2.35	0.832	0.523	0.287	4.96	7.92	3.92	1.57	6.03	0.00931	0.25	8.56	> 10	0.442	2.36	0.0235	> 10	> 10	4.41	0.133	0.307	3.59	8.97	0.00483	2.34	0.0021	> 10	2.04
MDAMB415	0.0239	0.0474	0.0347	0.00771	0.0304	1.81	0.293	1.02	0.006	0.475	4.22	> 10	1.46	2.92	7.69	0.0616	1.56	> 10	> 10	0.278	0.0507	0.0102	> 10	> 10	0.236	1.87	1.5	0.0764	6.41	0.00909	0.00897	0.0112	1.34	> 10

From the supplement of paper PMC9663587
